Data reported in article PMC4274187 (Bioorganic & medicinal chemistry, 2014).

Key:
[1] = target: dopamine transporter (DAT) (Mus musculus, UniProt Q61327); test: DAT binding, [125I]RTI-121, mouse striatal membranes; details: for inhibition at 10 µM: read-out: DAT % Inh.
[2] = target: vesicular acetylcholine transporter; details: read-out: vesicular acetylcholine transporter Ki; secondary interaction; cited from earlier work
[3] = target: serotonin transporter (SERT) (Mus musculus, UniProt Q60857); test: SERT binding, [3H]paroxetine, mouse whole brain membranes; details: ratio of DAT and SERT Ki
[4] = tested on: norepinephrine transporter; details: cited from earlier work
[5] = target: σ1 receptors; details: read-out: apparent affinity for σ1 receptors; more recent determination; cited from earlier work

Chain of dopamine transporter (DAT) (Q61327 whole entry): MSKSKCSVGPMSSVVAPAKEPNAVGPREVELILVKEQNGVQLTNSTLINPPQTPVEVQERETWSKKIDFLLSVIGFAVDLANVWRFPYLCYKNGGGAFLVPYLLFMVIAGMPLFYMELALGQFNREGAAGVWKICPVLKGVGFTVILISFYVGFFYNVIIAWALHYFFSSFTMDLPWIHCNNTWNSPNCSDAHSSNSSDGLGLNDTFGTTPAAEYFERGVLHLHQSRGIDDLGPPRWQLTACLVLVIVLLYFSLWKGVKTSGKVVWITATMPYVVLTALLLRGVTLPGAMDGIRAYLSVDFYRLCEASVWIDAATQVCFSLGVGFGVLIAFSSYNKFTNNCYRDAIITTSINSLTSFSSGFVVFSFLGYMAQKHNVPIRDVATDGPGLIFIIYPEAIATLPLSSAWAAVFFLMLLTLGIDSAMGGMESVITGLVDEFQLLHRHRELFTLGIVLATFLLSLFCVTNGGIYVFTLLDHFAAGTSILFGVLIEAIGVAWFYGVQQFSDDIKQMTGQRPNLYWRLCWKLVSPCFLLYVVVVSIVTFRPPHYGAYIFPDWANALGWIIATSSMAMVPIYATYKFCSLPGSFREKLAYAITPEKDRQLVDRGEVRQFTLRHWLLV
Chain of serotonin transporter (SERT) (Q60857 whole entry): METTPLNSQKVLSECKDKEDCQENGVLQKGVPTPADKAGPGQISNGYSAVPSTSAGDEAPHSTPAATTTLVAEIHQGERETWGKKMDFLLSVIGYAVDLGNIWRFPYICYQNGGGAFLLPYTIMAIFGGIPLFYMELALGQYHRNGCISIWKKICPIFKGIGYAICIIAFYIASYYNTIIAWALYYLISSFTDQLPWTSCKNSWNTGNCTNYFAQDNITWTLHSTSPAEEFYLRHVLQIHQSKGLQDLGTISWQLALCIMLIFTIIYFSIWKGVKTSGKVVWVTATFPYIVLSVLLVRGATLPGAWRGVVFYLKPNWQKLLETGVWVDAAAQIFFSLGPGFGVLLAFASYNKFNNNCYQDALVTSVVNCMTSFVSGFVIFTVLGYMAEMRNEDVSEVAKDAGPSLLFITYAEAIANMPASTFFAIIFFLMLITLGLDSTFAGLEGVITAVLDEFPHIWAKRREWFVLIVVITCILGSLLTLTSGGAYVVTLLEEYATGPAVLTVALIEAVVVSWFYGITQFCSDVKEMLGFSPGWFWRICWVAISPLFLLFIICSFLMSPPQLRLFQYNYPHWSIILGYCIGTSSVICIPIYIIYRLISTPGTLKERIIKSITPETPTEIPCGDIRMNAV

Row | SMILES | Ki [1] [µM] | inhibition at 10 µM [1] [%] | further results
1 | COc1cc(CCN2CCN(CCCc3ccccc3)CC2)ccc1OCCF [FE-SA4503] |  | 19 | 
2 | COc1cc(CCN2CCN(CCCc3ccccc3)CC2)ccc1OCc1ccccc1 [compound 4, 1-(4-(benzyloxy)-3-methoxyphenethyl)-4-(3-phenylpropyl)piperazine] |  |  | higher DAT affinity than SA4503 ([1]; relative to parent SA4503): over 100 fold
3 | Fc1ccc(C(OCCN2CCN(CCCc3ccccc3)CC2)c2ccc(F)cc2)cc1 [GBR 12909] |  |  | affinity for the norepinephrine transporter [4]: > 1000 nM; Ki [5]: 0.0508 µM

The next lines start with results.

Row | Ki [1] [µM] | inhibition at 10 µM [1] [%] | SMILES | further results
4 | ~2 |  | c1ccc(CCCN2CCN(CCc3ccc4c(c3)OCO4)CC2)cc1 [compound 7, 1-(3,4-methylenedioxyphenethyl)-4-(3-phenylpropyl)piperazine] | 
5 | 12.7 ± 0.832 | 23 | COc1ccc(CCN2CCN(CCCc3ccccc3)CC2)cc1OC [SA4503, 1-[2-(3,4-dimethoxyphenyl)ethyl]-4-(3-phenylpropyl)piperazine] | Ki [2]: 0.05 µM; higher affinity for SERT over DAT [3]: 16 fold
6 | ~2 |  | CCCOc1ccc(CCN2CCN(CCCc3ccccc3)CC2)cc1OC [compound 1, 1-(3-methoxy-4-propoxyphenethyl)-4-(3-phenylpropyl)piperazine] | 
